For four molecules, Activity and IC50 results are on record in ChEMBL document CHEMBL5050832, “Compounds and methods for regulating, limiting, or inhibiting avil expression” (2020).

Active and inactive are the calls of the source. The rule behind the calls is not given here.

One assay is filed under the species Homo sapiens. The experiment in a line: Binding affinity towards recombinant AVIL (unknown origin) measured by thermal shift assay.
In another assay the test system is U-87MG ATCC. The experiment in a line: Downregulation of LIN28B expression in human U87 cells measured by qRT-PCR assay. The format is functional, cell-based. In general terms: In qPCR the cycle at which signal appears reflects the starting amount.
Assay [1] deals with SJRH30. The experiment in a line: Antiproliferative activity against human Rh30 cells. The format is functional, cell-based.
For assay [2], the system named is RD. The experiment in a line: Antiproliferative activity against human RD cells. The format is functional, cell-based.
Assay [3] concerns Mesenchymal stem cells. Nature of the assay: Antiproliferative activity against human mesenchymal stem cells. The format is functional, cell-based.
Assay [4] has as its system SJRH30. Nature of the assay: Antiproliferative activity against human Rh30 cells at 20 uM assessed as decrease in cell number measured by crystal violet staining method relative to control. Format: functional, cell-based.
Assay [5] concerns RD. Nature of the assay: Antiproliferative activity against human RD cells at 20 uM assessed as decrease in cell number measured by crystal violet staining method relative to control. The format is functional, cell-based.
Assay [6] relates to Mesenchymal stem cells. Nature of the assay: Antiproliferative activity against human mesenchymal stem cells at 20 uM assessed as decrease in cell number measured by crystal violet staining method relative to control. The format is functional, cell-based.
A further assay deals with U-87 MG. The experiment in a line: Antiproliferative activity against human U87 cells. Format: functional, cell-based, U-87MG ATCC.
Assay [7] can be described thus: Antiproliferative activity against human astrocytes. Format: functional, cell-based. Particulars: Astrocyte.

Regarding `Nc1nccc(N2CCCC(CO)(CCCc3ccccc3)C2)n1` (centres undefined), the outcome in the assay listed under Homo sapiens, with U-87MG ATCC, in the assay on SJRH30 [1], in the assay on RD [2], in the assay with SJRH30 [4] and in the assay on RD [5] was Active. The result in the assay on Mesenchymal stem cells [3] and in the assay on Mesenchymal stem cells [6] was inactive.

For `c1ccc(CCC2CCN(CC3[C@H]4CNC[C@@H]34)CC2)cc1` (some centres undefined), the outcome in the assay filed under Homo sapiens and in the assay on U-87MG ATCC was Active.

As to `CN(Cc1ccc(Oc2ccccc2)cc1)C(=O)[C@@H]1C[C@@H](O)CN1`, the result in the assay filed under Homo sapiens and in the assay on U-87MG ATCC was Active.

As usually defined, the IC50 is the concentration that gives 50% inhibition. A high value points to a need for much substance. Regarding `Cc1cc(N2CCCC(CO)(CCCc3ccccc3)C2)nc(N)n1` (centres undefined), the half-maximal inhibitory concentration (IC50) is 8 µM in the assay on U-87 MG and 5 µM in [7].
